Source: ChEMBL document CHEMBL1139203, “Syntheses and antiproliferative evaluation of oxyphenisatin derivatives” (Bioorg Med Chem Lett, 2007)
Values after ≈ are worked out from the molar mass of the structure shown.

What was measured:
[1] = Antiproliferative activity against human MDA231 cells; assay type: functional, cell-based; details: MDA-MB-231
[2] = Antiproliferative activity against human MDA468 cells; assay type: functional, cell-based; details: MDA-MB-468
[3] = Permeability across human Caco-2 cell membrane; assay type: ADME, cell-based; details: read-out: permeability
Cytochrome P450 1A2 = molecular target: T1, Cytochrome P450 1A2 (Homo sapiens, UniProt P05177); assay: Inhibition of human CYP1A2; assay type: ADME
T1 sequence (P05177 whole entry): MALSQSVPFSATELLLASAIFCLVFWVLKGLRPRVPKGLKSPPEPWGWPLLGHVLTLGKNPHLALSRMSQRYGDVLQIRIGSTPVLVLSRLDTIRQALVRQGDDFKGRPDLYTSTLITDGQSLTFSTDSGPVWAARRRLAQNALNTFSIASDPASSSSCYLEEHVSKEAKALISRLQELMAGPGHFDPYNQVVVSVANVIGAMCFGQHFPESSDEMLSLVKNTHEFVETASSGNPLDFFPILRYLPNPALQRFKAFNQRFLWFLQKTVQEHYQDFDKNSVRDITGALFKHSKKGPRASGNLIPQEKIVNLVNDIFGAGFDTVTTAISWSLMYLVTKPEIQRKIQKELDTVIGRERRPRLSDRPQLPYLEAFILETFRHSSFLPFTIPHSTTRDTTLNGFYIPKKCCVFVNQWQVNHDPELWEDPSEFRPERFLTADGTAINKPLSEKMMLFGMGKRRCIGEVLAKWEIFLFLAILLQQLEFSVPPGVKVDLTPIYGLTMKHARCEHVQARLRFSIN

Serum = assay: Protein binding to human serum; assay type: ADME, cell-free
Cytochrome P450 2D6 = Cytochrome P450 2D6 (Homo sapiens, UniProt P10635); assay: Inhibition of human CYP2D6; assay type: ADME
Cytochrome P450 2C19 = Cytochrome P450 2C19 (Homo sapiens, UniProt P33261); assay: Inhibition of human CYP2C19; assay type: ADME
[4] = Aqueous solubility at pH 7.0; assay type: physicochemical
Cytochrome P450 3A4 = Cytochrome P450 3A4 (Homo sapiens, UniProt P08684); assay: Inhibition of human CYP3A4; assay type: ADME
Cytochrome P450 2C9 = Cytochrome P450 2C9 (Homo sapiens, UniProt P11712); assay: Inhibition of human CYP2C9; assay type: ADME
Cytochrome P450 2C9, sequence (P11712 whole entry): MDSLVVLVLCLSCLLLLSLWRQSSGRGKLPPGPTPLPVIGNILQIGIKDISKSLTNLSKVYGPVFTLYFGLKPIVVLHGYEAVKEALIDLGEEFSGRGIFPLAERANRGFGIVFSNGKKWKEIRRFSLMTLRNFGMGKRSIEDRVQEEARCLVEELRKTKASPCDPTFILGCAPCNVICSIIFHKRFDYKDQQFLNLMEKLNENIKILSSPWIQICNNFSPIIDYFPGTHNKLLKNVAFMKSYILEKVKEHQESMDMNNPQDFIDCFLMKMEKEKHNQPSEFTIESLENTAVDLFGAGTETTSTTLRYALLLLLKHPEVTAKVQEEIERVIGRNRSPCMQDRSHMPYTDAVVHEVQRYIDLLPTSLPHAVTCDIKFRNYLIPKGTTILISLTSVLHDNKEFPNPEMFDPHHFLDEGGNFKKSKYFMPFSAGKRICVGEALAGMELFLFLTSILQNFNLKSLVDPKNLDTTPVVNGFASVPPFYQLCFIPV

Cytochrome P450 2C19, sequence (P33261 whole entry): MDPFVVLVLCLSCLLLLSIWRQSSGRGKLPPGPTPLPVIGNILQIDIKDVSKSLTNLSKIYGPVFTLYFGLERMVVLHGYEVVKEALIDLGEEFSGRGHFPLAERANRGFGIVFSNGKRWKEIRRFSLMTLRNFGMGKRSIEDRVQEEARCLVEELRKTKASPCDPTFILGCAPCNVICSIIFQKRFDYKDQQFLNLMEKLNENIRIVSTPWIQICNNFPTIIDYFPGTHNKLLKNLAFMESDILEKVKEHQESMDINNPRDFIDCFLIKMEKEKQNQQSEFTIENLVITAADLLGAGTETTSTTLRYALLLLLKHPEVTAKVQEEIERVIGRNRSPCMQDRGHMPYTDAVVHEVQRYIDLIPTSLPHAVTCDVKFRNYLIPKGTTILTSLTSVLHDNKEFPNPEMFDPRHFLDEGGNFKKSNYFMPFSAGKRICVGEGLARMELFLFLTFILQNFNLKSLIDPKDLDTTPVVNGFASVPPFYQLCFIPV
Cytochrome P450 2D6, sequence (P10635 whole entry): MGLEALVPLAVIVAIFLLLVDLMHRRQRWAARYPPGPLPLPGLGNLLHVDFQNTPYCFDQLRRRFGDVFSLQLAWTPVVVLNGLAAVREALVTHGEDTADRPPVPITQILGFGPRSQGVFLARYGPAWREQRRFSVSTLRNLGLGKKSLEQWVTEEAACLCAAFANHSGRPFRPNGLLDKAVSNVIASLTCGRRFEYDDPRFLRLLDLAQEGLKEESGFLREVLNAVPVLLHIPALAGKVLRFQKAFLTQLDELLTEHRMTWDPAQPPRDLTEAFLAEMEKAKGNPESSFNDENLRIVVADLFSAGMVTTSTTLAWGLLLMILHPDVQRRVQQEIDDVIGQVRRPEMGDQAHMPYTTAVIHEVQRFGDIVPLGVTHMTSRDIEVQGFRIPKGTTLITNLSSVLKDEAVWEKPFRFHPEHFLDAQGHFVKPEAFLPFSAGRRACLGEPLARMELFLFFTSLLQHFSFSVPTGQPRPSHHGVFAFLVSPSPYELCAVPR
Cytochrome P450 3A4, sequence (P08684 whole entry): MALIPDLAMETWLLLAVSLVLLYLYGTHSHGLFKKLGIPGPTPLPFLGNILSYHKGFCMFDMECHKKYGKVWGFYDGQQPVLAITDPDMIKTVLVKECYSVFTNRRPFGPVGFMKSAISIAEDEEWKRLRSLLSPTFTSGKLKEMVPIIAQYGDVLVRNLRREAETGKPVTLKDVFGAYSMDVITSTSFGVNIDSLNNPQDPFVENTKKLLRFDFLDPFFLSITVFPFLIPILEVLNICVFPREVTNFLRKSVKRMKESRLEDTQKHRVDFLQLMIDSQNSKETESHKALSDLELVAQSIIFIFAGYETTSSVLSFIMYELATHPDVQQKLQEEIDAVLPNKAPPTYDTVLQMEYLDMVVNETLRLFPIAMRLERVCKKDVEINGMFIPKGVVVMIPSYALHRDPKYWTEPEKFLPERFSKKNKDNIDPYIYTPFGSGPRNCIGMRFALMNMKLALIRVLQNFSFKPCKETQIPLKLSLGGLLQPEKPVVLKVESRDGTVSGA

Row | Compound | IC50 [1] [µM] | IC50 [2] [µM] | also measured
1 | N#Cc1cccc2c1NC(=O)C2(c1ccc(O)cc1)c1ccc(O)cc1 | > 3 | 0.057 | 
2 | COc1ccc(C2(c3ccc(OC)cc3)C(=O)Nc3ccccc32)cc1 | > 3 | 1.8 | 
3 | O=C1Nc2c(ccc(F)c2F)C1(c1ccc(O)cc1)c1ccc(O)cc1 | > 3 | 0.003 | Papp [3]: 43.1 nm/s; Activity (Cytochrome P450 1A2): > 10 µM; Activity (Serum): 98%; Activity (Cytochrome P450 2D6): > 10 µM; Activity (Cytochrome P450 2C19): 1 µM; solubility [4]: 0.23 mg/mL (≈ 651 µM); Activity (Cytochrome P450 3A4): > 10 µM; Activity (Cytochrome P450 2C9): 1 µM
4 | Cc1cccc2c1NC(=O)C2(c1ccc(O)cc1)c1ccc(O)cc1 | > 3 | 0.027 | 
5 | O=C1Nc2c(C(F)(F)F)cccc2C1(c1ccc(O)cc1)c1ccc(O)cc1 |  |  | Papp [3]: 19.6 nm/s; Activity (Cytochrome P450 1A2): > 10 µM; Activity (Cytochrome P450 2D6): > 10 µM; Activity (Cytochrome P450 2C19): 1 µM; solubility [4]: 0.64 mg/mL (≈ 1660 µM); Activity (Cytochrome P450 3A4): > 10 µM; Activity (Cytochrome P450 2C9): 1 µM
6 | O=C1Nc2c(I)cccc2C1(c1ccc(O)cc1)c1ccc(O)cc1 | > 3 | 0.062 | 
7 | O=C1Nc2c(ccc3c2CCCCC3)C1(c1ccc(O)cc1)c1ccc(O)cc1 | > 3 | 0.055 | 
8 | O=C(O)c1cccc2c1NC(=O)C2(c1ccc(O)cc1)c1ccc(O)cc1 | > 3 | > 3 | 
9 | O=C1Nc2ccccc2C1(c1ccc(O)cc1)c1ccc(O)cc1 [OXYPHENISATINE] | > 3 | 0.112 | 
